{"source": "patent US20130266590A1", "about": "“DIMERIC IAP INHIBITORS” (NOVARTIS AG, priority 2010, published 2013)", "key": {"XIAP-BIR3": {"biological_target": "XIAP-BIR3 (Homo sapiens, UniProt P98170)", "sequence (P98170 241-356 limits assumed)": "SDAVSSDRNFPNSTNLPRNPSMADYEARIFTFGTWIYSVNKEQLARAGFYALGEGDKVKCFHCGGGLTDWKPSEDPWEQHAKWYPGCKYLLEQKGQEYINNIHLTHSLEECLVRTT", "assay": "Biacore SPR solution competition binding assay vs smac7mer peptide, XIAP-BIR3", "conditions": "SPR competition with captured smac7mer peptide; 100 nM XIAP-BIR3; 25° C.; read-out: XIAP-BIR3 Binding Biacore (Competitive) EC50", "source_text": "(§1) The compounds described herein above were profiled using a cellular assay (using Panc3.27 tumor cells) and a binding assay to determine the competition between the compounds of the present invention and smac7mer peptide for XIAP-BIR3 and cIAP1-BIR3 binding groove occupancy.\n(§2) The present method includes utility of a Surface plasmon resonance (SPR)-based biosensor (Biacore™, GE Healthcare, Uppsala, Sweden) to examine competition between the compounds of the present invention and smac7mer peptide for XIAP-BIR3 and cIAP1-BIR3 binding groove occupancy.\n(§3) Biacore™ utilizes the phenomenon of surface plasmon resonance (SPR) to detect and measure binding interactions. In a typical Biacore experiment, one of the interacting molecules is immobilized on a flexible dextran matrix while the interacting partner is flowed over the derivatized surface. A binding interaction results in an increase in mass on the sensor surface and a corresponding direct change in the refractive index of the medium in the vicinity of the sensor surface. Changes in refractive index or signal are recorded in resonance units (R.U.) Signal changes due to association and dissociation of complexes are monitored in a non-invasive manner, continuously and in real-time, the results of which are reported in the form of a sensorgram.\n(§4) Biacore™ T100 (GE Healthcare, Uppsala, Sweden) was used to conduct all experiments reported herein. Sensor surface preparation and interaction analyses were performed at 25° C. Buffer and Biacore reagents were purchased from GE Healthcare. Running buffer containing 10 mM Hepes, pH7.4, 150 mM sodium chloride, 1.25 mM Dithiothreitol, 2% Dimethyl sulfoxide and 0.05% polysorbate 20 was utilized throughout all experiments.\n(§5) Biotinylated smac7mer peptide was diluted to 10 nM in running buffer and captured onto a sensor surface pre-derivatized with streptavidin (sensor chip SA) towards peptide surface densities in the range 40-100 R.U. Peptide captured surfaces were blocked with 500 μM PEO2-Biotin (Thermo Scientific).\n(§6) Interaction analyses were performed by first equilibrating each compound within a six point seven fold compound dilution series in the range 1 μM to 0.06 nM with either 100 nM XIAP-BIR3 or 6 nM cIAP1-BIR3 for at least one hour during instrument start-up procedures. Protein compound mixtures were then injected over reference and smac7mer peptide surfaces in series for 60 seconds at a flow-rate of 60 μL/min. Surface regeneration was performed at the end of each analysis cycle by a 30 second injection of 10 mM Glycine, pH 2.5, 1M Sodium Chloride, 0.05% polysorbate 20. Additionally, control compound samples and control XIAP-BIR3 or cIAP1-BIR3 samples were prepared and run at regular intervals to monitor surface and assay performance.\n(§7) Data analyses were carried out using Biacore™ T100 evaluation software v2.0 to validate assay quality. Binding level report points were plotted versus logarithmic compound concentration values and analyzed in Graphpad prism 5 via non-linear regression using a one-site competition model. EC50 values were generated and used as a measure of inhibitor potency."}, "cIAP1-BIR3": {"biological_target": "cIAP1-BIR3 (Homo sapiens, UniProt Q13490)", "sequence (Q13490 253-363 limits assumed)": "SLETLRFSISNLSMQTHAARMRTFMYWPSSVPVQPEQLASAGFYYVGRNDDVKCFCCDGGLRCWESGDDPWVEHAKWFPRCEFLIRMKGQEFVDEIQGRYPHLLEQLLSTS", "assay": "Biacore SPR solution competition binding assay vs smac7mer peptide, cIAP1-BIR3", "conditions": "SPR competition with captured smac7mer peptide; 6 nM cIAP1-BIR3; 25° C.; read-out: CIAP-BIR3 Binding Biacore (Competitive) EC50", "source_text": "as §1, §2, §3, §4, §5, §6, §7"}, "Panc3.27 tumor cells": {"test_system": "Panc3.27 tumor cells", "assay": "Cellular assay: Panc3.27 tumor cell proliferation (Cell Titer Glo)", "assay_type": "cell-based", "conditions": "Panc3.27 cells, 4000 cells per well, 72 hour growth, CTG readout, percent control growth; read-out: PANC proliferation IC50", "description": "as §1\nCellular Assay—Treatment of Panc3.27 Tumor Cells with Dimeric IAP Antagonists\nOn day one adherent Panc3.27 cells are plated into two 96-well, clear, flat bottom plates. All wells in row A contain 90 uL of media. All wells in rows B-G contain a total volume of 90 uL per well and 4000 cells per well for Panc3.27 cell lines. Plates are then incubated overnight for 18 hours at 37° C., 5% CO2.\nOn day two cells are treated with the compounds of formula M-L-M′. Treatments are done in triplicate. The compounds are first serially diluted in DMSO and then added to media giving a final concentration of 0.2% DMSO when added to cells. Cells are treated with 10 uL of serially diluted compounds of formula M-L-M′ at a final concentration of 1000 nM, 200 nM, 40 nM, 8 nM, 1.6 nM, 0.32 nM, 0.06 nM, 0.013 nM, 0.0026 nM, and one untreated well. Plate two is used as a time zero plate.\nTo measure cell viability 50 uL of Cell Titer Glo (CTG) solution is added to row A, media only and B, cells and media. CTG is purchased from Promega Corporation catalog number G7573. The solution is prepared according to manufacturer's instructions. CTG measures the amount of ATP released from viable cells that is proportional to the number of cells in each well. After incubating for ten minutes with CTG plates are measured on a luminescent reader at 700 nm wavelength. Read time is approximately one second per well for a 96-well plate.\nOn day five 50 uL of CTG is added to plate one, rows A-G, incubated for 10 minutes at room temperature and read on a luminescent reader. Raw data is adjusted to account for the time zero plate as well as background noise. Triplicate values are averaged and percent control growth is calculated. Percent control growth is calculated using the following logical test: If well read data point (a) is greater than time zero data point (t=0), then 100*[(a)−(t=0)]/[(72 hour total growth)−(t=0)], OR 100*[(a)−(t=0)]/[(t=0)]. Data is represented by line graph with the concentration of compound on the x axis and percent control growth on the y axis."}}}
{"smiles": "CN[C@@H](C)C(=O)N[C@H](C(=O)N1CCC[C@H]1c1cncc(-c2ccc(F)c(C(=O)NCCOCCOCCNC(=O)c3cc(-c4cncc([C@@H]5CCCN5C(=O)[C@@H](NC(=O)[C@H](C)NC)C5CCCCC5)c4)ccc3F)c2)c1)C1CCCCC1", "note": "[Example 2H-1]", "values": [{"measurement": "EC50", "setting": "XIAP-BIR3", "result": "244 to 252", "unit": "nM"}, {"measurement": "EC50", "setting": "cIAP1-BIR3", "result": "1.84 to 1.89", "unit": "nM"}, {"measurement": "IC50", "setting": "Panc3.27 tumor cells", "result": "0.03 to 0.07", "unit": "nM"}]}
